In the assay the test system is PD1/PD-L1 pathway. As to the kind of experiment: PD1/PD-L1 Blockade Bioassay, inhibition of the PD1/PD-L1 pathway at the cellular level (luciferase reporter, PD-1 Jukat T cells co-cultured with PD-L1 aAPC/CHO-K1 cells). The format is cell-based. To be noted: T-cell; for pEC50: PD-1 Jukat T cells + PD-L1 aAPC/CHO-K1 cells, 6 h co-culture, ONE-Glo luciferase readout; for Emax: maximum % Activity relative to atezolizumab (set to 100%). On the procedure: Experiment 1: Detecting the Inhibitory Activity of Compounds on the PD1/PD-L1 Pathway at the Cellular Level Using the PD1/PD-L1 Blockade Bioassay Method
PD-1 Jukat T cells were revived and cultured with 1640 medium containing 100 μg/mL Hygromycin B, […] Puromycin, 10% FBS and 1% dual antibody; PD-L1 aAPC/CHO-K1 cells were revived and cultured with F12K medium containing 100 μg/mL Hygromycin B, 200 μg/mL G418, 10% FBS and 1% dual antibody.
The revived cells need to be passaged 2-3 times. When the cells enter the exponential growth phase with good growth status, the PD-L1 aAPC/CHO-K1 was digested with trypsin, and the cells were resuspended in F12K containing 5% FBS and adjusted to a density of 5×10^5 cells/mL. 20 μl/well were plated in a 384-well plate (10,000 cells/well) and incubated in an incubator overnight for 16-20 h.
a Preparation of compound stock solution: Dissolve the compound to be tested in DMSO to prepare a 20 mM stock solution.
b Compound gradient dilution: dilute the compound in 1640 medium containing 5% FBS without antibiotics or phenol red, and make 3-fold gradient dilutions to prepare 10 concentration gradients (2×).
c Adding drugs: Take out the cell culture plate, discard the supernatant, add 20 μl/well of the prepared compound, and incubate in the incubator for 1.5 h.
PD-1 Jukat T cells were collected, washed once with PBS, and resuspended in 1640 medium containing 5% FBS without antibiotics or phenol red. The density was adjusted to 1×10^6 cells/mL. 20 μl PD-1 Jukat T cells (20,000 cells/well) were added to each well and incubated in the incubator for 6 h.
ONE-Glo™ Luciferase Assay reagent was thawed to room temperature in advance and then added to a 384-well plate at 40 µl/well. Incubate in the dark for 15 minutes and read the […] signal on a plate reader.
[formula] • Among them, % Activity: % Activity • RLU: Resulting Luminescence unit • RLUvehicle: Average RLU value of negative control wells on each plate • RLUpositive: Average RLU value of positive control wells on each plate • Vehicle control: DMSO (0.1%) corresponding to the test value was used as negative control (its % Activity was 0%); • Positive control: The highest detection value at the atezolizumab administration concentration was used as the positive control (its % Activity was 100%). • (2) EC50 value calculation method: The EC50 value was obtained by the nonlinear fitting formula of Graph Pad Prism 8.0 software. The calculation formula is as follows:
Y=Bottom+(Top−Bottom)/(1+10^((Log EC50−X)×HillSlope)) • X: log of activator concentration (logarithm of compound concentration); Y: % Activity • (3) Emax definition: The maximum % Activity value corresponding to the maximum activation value of the compound relative to atezolizumab (the activation value is set to 100%).

pEC50: −log10 of the molar value.

Usually pEC50 stands for −log10 of the EC50, conventionally taken in molar units. As a reminder, the Emax is the maximal effect, on the per cent scale that the assay sets. Turning to `COc1nc(-c2cccc(-c3cccc(Nc4nc(C(F)F)nc5cc(CN6CC[C@](C)(O)C6)cnc45)c3C)c2Cl)cnc1CN(C)[C@H]1CC[C@H](C(=O)O)CC1` [Example 46, (1r,4r)-4-(((5-(2-chloro-3′-((2-(difluoromethyl)-7-(((S)-3-hydroxy-3-methylpyrrolidin-1-yl)methyl)pyrido[3,2-d]pyrimidin-4-yl)amino)-2′-methyl-[1,1′-biphenyl]-3-yl)-3-methoxypyrazin-2-yl)methyl)(methyl)amino)cyclohexane-1-carboxylic acid], the pEC50 is 7.22 and the Emax is 86.7%.
As to `COc1nc(-c2cccc(-c3cccc(Nc4nc(C(F)F)nc5cc(CN6CC[C@@H](O)C6)cnc45)c3C)c2Cl)ccc1CNC12CCC(C(=O)O)(CC1)C2` [Example 9, (R)-4-(((6-(2-chloro-3′-((2-(difluoromethyl)-7-((3-hydroxypyrrolidin-1-yl)methyl)pyrido[3,2-d]pyrimidin-4-yl)amino)-2′-methyl-[1,1′-biphenyl]-3-yl)-2-methoxypyridin-3-yl)methyl)amino)bicyclo[2.2.1]heptane-1-carboxylic acid], the pEC50 is 7.04 and the Emax was 117%.
Turning to `COc1nc(-c2cccc(-c3cccc(Nc4nc(C(F)F)nc5cc(CN6CC[C@@H](O)C6)cnc45)c3Cl)c2Cl)cnc1CN(C)[C@H]1CC[C@H](C(=O)O)CC1` [Example 35, (1r,4r)-4-(((5-(2,2′-dichloro-3′-((2-(difluoromethyl)-7-(((R)-3-hydroxypyrrolidin-1-yl)methyl)pyrido[3,2-d]pyrimidin-4-yl)amino)-[1,1′-biphenyl]-3-yl)-3-methoxypyrazin-2-yl)methyl)(methyl)amino)cyclohexane-1-carboxylic acid], the pEC50 is 7.34 and the maximum response (Emax) was determined as 102%.
With `COc1nc(-c2cccc(-c3cccc(Nc4nc(C(F)F)nc5cc(CN6CC[C@H]([C@@H](C)O)C6)cnc45)c3C)c2Cl)cnc1CN(C)[C@H]1CC[C@H](C(=O)O)CC1` [Example 44, (1r,4r)-4-(((5-(2-chloro-3′-((2-(difluoromethyl)-7-(((S)-3-((R)-1-hydroxyethyl)pyrrolidin-1-yl)methyl)pyrido[3,2-d]pyrimidin-4-yl)amino)-2′-methyl-[1,1′-biphenyl]-3-yl)-3-methoxypyrazin-2-yl)methyl)(methyl)amino)cyclohexane-1-carboxylic acid], the pEC50 was 7.07 and the Emax worked out at 69%.
As for `COc1nc(-c2cccc(-c3cccc(Nc4nc(C(F)F)nc5cc(CN6CC[C@@H](O)C6)cnc45)c3C)c2Cl)ccc1CN[C@H]1CC[C@H](C(=O)O)CC1` [Example 2, (1r,4r)-4-(((6-(2-chloro-3′-((2-(difluoromethyl)-7-(((R)-3-hydroxypyrrolidin-1-yl)methyl)pyrido[3,2-d]pyrimidin-4-yl)amino)-2′-methyl-[1,1′-biphenyl]-3-yl)-2-methoxypyridin-3-yl)methyl)amino)cyclohexane-1-carboxylic acid], the pEC50 was 7.01 and the Emax was found to be 118%.
In the case of `O=C(O)C1CCN(Cc2ccnc(Nc3cccc(-c4cccc(Nc5nc(C(F)F)nc6cc(CN7CC[C@@H](O)C7)cnc56)c4Cl)c3Cl)c2F)CC1` [Example 36, (R)-1-((2-((2,2′-dichloro-3′-((2-(difluoromethyl)-7-((3-hydroxypyrrolidin-1-yl)methyl)pyrido[3,2-d]pyrimidin-4-yl)amino)-[1,1′-biphenyl]-3-yl)amino)-3-fluoropyridin-4-yl)methyl)piperidine-4-carboxylic acid], the pEC50 is 7.26 and the Emax amounted to 85%.
The matching figures for `COc1nc(-c2cccc(-c3cccc(Nc4nc(C(F)F)nc5cc(CN6CCCC6)cnc45)c3C)c2Cl)cnc1CN(C)[C@H]1CC[C@H](C(=O)O)CC1` [Example 20, (1r,4r)-4-(((5-(2-chloro-3′-((2-(difluoromethyl)-7-(pyrrolidin-1-ylmethyl)pyrido[3,2-d]pyrimidin-4-yl)amino)-2′-methyl-[1,1′-biphenyl]-3-yl)-3-methoxypyrazin-2-yl)methyl)(methyl)amino)cyclohexane-1-carboxylic acid]: 7.20 and 108%.
The matching figures for `[2H]C([2H])([2H])N(Cc1ccc(-c2cccc(-c3cccc(Nc4nc(C(F)F)nc5cc(CN6CC[C@@H](O)C6)cnc45)c3C)c2Cl)nc1OC)[C@H]1CC[C@H](C(=O)O)CC1` [Example 13, (1r,4r)-4-(((6-(2-chloro-3′-((2-(difluoromethyl)-7-(((R)-3-hydroxypyrrolidin-1-yl)methyl)pyrido[3,2-d]pyrimidin-4-yl)amino)-2′-methyl-[1,1′-biphenyl]-3-yl)-2-methoxypyridin-3-yl)methyl)(methyl-d3)amino)cyclohexane-1-carboxylic acid]: 7.42 and 104%.
For `COc1nc(-c2cccc(-c3cccc(Nc4nc(C(F)F)nc5cc(CN6CC[C@@](C)(O)C6)cnc45)c3C)c2Cl)cnc1CN(C)[C@H]1CC[C@H](C(=O)O)CC1` [Example 29, (1r,4r)-4-(((5-(2-chloro-3′-((2-(difluoromethyl)-7-(((R)-3-hydroxy-3-methylpyrrolidin-1-yl)methyl)pyrido[3,2-d]pyrimidin-4-yl)amino)-2′-methyl-[1,1′-biphenyl]-3-yl)-3-methoxypyrazin-2-yl)methyl)(methyl)amino)cyclohexane-1-carboxylic acid], the pEC50 is 7.37 and the Emax was 89%.
In the case of `COc1nc(-c2cccc(-c3cccc(Nc4nc(C(F)F)nc5cc(CN6CC[C@@H](CO)C6)cnc45)c3C)c2Cl)cnc1CN(C)[C@H]1CC[C@H](C(=O)O)CC1` [Example 23, (1r,4r)-4-(((5-(2-chloro-3′-((2-(difluoromethyl)-7-(((R)-3-(hydroxymethyl)pyrrolidin-1-yl)methyl)pyrido[3,2-d]pyrimidin-4-yl)amino)-2′-methyl-[1,1′-biphenyl]-3-yl)-3-methoxypyrazin-2-yl)methyl)(methyl)amino)cyclohexane-1-carboxylic acid], the pEC50 is 7.35 and the Emax was found to be 74%.
The corresponding values for `COc1nc(-c2cccc(-c3cccc(Nc4nc(C(F)F)nc5cc(CN6CC(OC)C6)cnc45)c3C)c2Cl)cnc1CN(C)[C@H]1CC[C@H](C(=O)O)CC1` [Example 18, (1r,4r)-4-(((5-(2-chloro-3′-((2-(difluoromethyl)-7-((3-methoxyazetidin-1-yl)methyl)pyrido[3,2-d]pyrimidin-4-yl)amino)-2′-methyl-[1,1′-biphenyl]-3-yl)-3-methoxypyrazin-2-yl)methyl)(methyl)amino)cyclohexane-1-carboxylic acid] are 7.15 and 68%.
The matching figures for `COc1nc(-c2cccc(-c3cccc(Nc4nc(C(F)F)nc5cc(CN6CC[C@H](CO)C6)cnc45)c3C)c2Cl)cnc1CN(C)[C@H]1CC[C@H](C(=O)O)CC1` [Example 28, (1r,4r)-4-(((5-(2-chloro-3′-((2-(difluoromethyl)-7-(((S)-3-(hydroxymethyl)pyrrolidin-1-yl)methyl)pyrido[3,2-d]pyrimidin-4-yl)amino)-2′-methyl-[1,1′-biphenyl]-3-yl)-3-methoxypyrazin-2-yl)methyl)(methyl)amino)cyclohexane-1-carboxylic acid]: 7.31 and 95%.
The corresponding values for `COc1nc(-c2cccc(-c3cccc(Nc4nc(C(F)F)nc5cc(CN6CC[C@@H](O)C6)cnc45)c3C)c2C)cnc1CN(C)[C@H]1CC[C@H](C(=O)O)CC1` [Example 27, (1r,4r)-4-(((5-(3′-((2-(difluoromethyl)-7-(((R)-3-hydroxypyrrolidin-1-yl)methyl)pyrido[3,2-d]pyrimidin-4-yl)amino)-2,2′-dimethyl-[1,1′-biphenyl]-3-yl)-3-methoxypyrazin-2-yl)methyl)(methyl)amino)cyclohexane-1-carboxylic acid] are 6.95 and 63%.

Values taken from patent publication US20260234140A1, “PYRIDOPYRIMIDINE DERIVATIVE AND USE THEREOF” (SUNSHINE LAKE PHARMA CO., LTD., priority 2023, published 2026).
